Source: the NIST ThermoML archive (doi:10.1016/j.tca.2018.11.018)
Numbers after ± are expanded uncertainties.

Experiment: xn = mol fraction of the nth substance listed
Conditions: 100 kPa, Liquid; for viscosity: Falling or rolling sphere viscometry; for mass density: Vibrating tube method

CCCC[N+]1(C)CCCCC1.[Br-] [N-butyl-N-methylpiperidinium bromide] + O
Conditions | mass density [kg/m3] | viscosity [mPa·s]
298.15 K, x1 = 0.03 | 1057.7 ± 1 | 1.991 ± 0.12
298.15 K, x1 = 0.06 | 1097.6 ± 1 | 3.692 ± 0.22
298.15 K, x1 = 0.089 | 1126.3 ± 1 | 6.598 ± 0.4
298.15 K, x1 = 0.124 | 1150.5 ± 1.1 | 12.67 ± 0.77
298.15 K, x1 = 0.159 | 1167.6 ± 1.1 | 21.36 ± 1.3
298.15 K, x1 = 0.195 | 1180.6 ± 1.1 | 35.21 ± 2.1
298.15 K, x1 = 0.244 | 1193.3 ± 1.2 | 69.27 ± 4.2
303.15 K, x1 = 0.03 | 1054.4 ± 1 | 1.735 ± 0.11
303.15 K, x1 = 0.06 | 1094.6 ± 1 | 3.121 ± 0.19
303.15 K, x1 = 0.089 | 1122.9 ± 1 | 5.435 ± 0.33
303.15 K, x1 = 0.124 | 1146.9 ± 1.1 | 10.39 ± 0.63
303.15 K, x1 = 0.159 | 1164 ± 1.1 | 16.98 ± 1
303.15 K, x1 = 0.195 | 1176.9 ± 1.1 | 27.19 ± 1.6
303.15 K, x1 = 0.244 | 1189.7 ± 1.2 | 51.06 ± 3.1
303.15 K, x1 = 0.271 | 1195.4 ± 1.2 | 72.65 ± 4.5
308.15 K, x1 = 0.03 | 1051.9 ± 1 | 1.529 ± 0.092
308.15 K, x1 = 0.06 | 1091.5 ± 1 | 2.676 ± 0.16
308.15 K, x1 = 0.089 | 1119.4 ± 1 | 4.553 ± 0.28
308.15 K, x1 = 0.124 | 1143.2 ± 1.1 | 8.531 ± 0.52
308.15 K, x1 = 0.159 | 1160.3 ± 1.1 | 13.62 ± 0.83
308.15 K, x1 = 0.195 | 1173.3 ± 1.1 | 21.32 ± 1.3
308.15 K, x1 = 0.244 | 1186.2 ± 1.2 | 38.65 ± 2.4
308.15 K, x1 = 0.271 | 1191.8 ± 1.2 | 53.78 ± 3.3
313.15 K, x1 = 0.03 | 1049.3 ± 1 | 1.359 ± 0.082
313.15 K, x1 = 0.06 | 1088.3 ± 1 | 2.321 ± 0.14
313.15 K, x1 = 0.089 | 1116 ± 1 | 3.88 ± 0.23
313.15 K, x1 = 0.124 | 1139.6 ± 1.1 | 7.053 ± 0.43
313.15 K, x1 = 0.159 | 1156.7 ± 1.1 | 11.02 ± 0.67
313.15 K, x1 = 0.195 | 1169.7 ± 1.1 | 16.99 ± 1
313.15 K, x1 = 0.244 | 1182.6 ± 1.2 | 29.62 ± 1.8
313.15 K, x1 = 0.271 | 1188.3 ± 1.2 | 40.63 ± 2.5
318.15 K, x1 = 0.03 | 1045.6 ± 1 | 1.215 ± 0.073
318.15 K, x1 = 0.06 | 1085.1 ± 1 | 2.033 ± 0.12
318.15 K, x1 = 0.089 | 1112.4 ± 1 | 3.326 ± 0.2
318.15 K, x1 = 0.124 | 1135.9 ± 1.1 | 5.797 ± 0.35
318.15 K, x1 = 0.159 | 1153 ± 1.1 | 9.05 ± 0.55
318.15 K, x1 = 0.195 | 1166 ± 1.1 | 13.74 ± 0.83
318.15 K, x1 = 0.244 | 1179 ± 1.2 | 23.16 ± 1.4
318.15 K, x1 = 0.271 | 1184.7 ± 1.2 | 31.55 ± 1.9
323.15 K, x1 = 0.03 | 1042.7 ± 1 | 1.097 ± 0.066
323.15 K, x1 = 0.06 | 1081.8 ± 1 | 1.798 ± 0.11
323.15 K, x1 = 0.089 | 1108.8 ± 1 | 2.89 ± 0.17
323.15 K, x1 = 0.124 | 1132.2 ± 1.1 | 4.929 ± 0.3
323.15 K, x1 = 0.159 | 1149.3 ± 1.1 | 7.56 ± 0.46
323.15 K, x1 = 0.195 | 1162.4 ± 1.1 | 11.33 ± 0.69
323.15 K, x1 = 0.244 | 1175.4 ± 1.2 | 18.71 ± 1.1
323.15 K, x1 = 0.271 | 1181.2 ± 1.2 | 24.85 ± 1.5
328.15 K, x1 = 0.03 | 1040 ± 1 | 0.997 ± 0.06
328.15 K, x1 = 0.06 | 1078.4 ± 1 | 1.603 ± 0.097
328.15 K, x1 = 0.089 | 1105.2 ± 1 | 2.54 ± 0.15
328.15 K, x1 = 0.124 | 1128.5 ± 1.1 | 4.221 ± 0.26
328.15 K, x1 = 0.159 | 1145.5 ± 1.1 | 6.369 ± 0.39
328.15 K, x1 = 0.195 | 1158.7 ± 1.1 | 9.485 ± 0.58
328.15 K, x1 = 0.244 | 1171.8 ± 1.2 | 15.31 ± 0.93
328.15 K, x1 = 0.271 | 1177.6 ± 1.2 | 20.06 ± 1.2
333.15 K, x1 = 0.03 | 1035.9 ± 1 | 0.906 ± 0.055
333.15 K, x1 = 0.06 | 1075 ± 1 | 1.441 ± 0.087
333.15 K, x1 = 0.089 | 1101.6 ± 1 | 2.248 ± 0.14
333.15 K, x1 = 0.124 | 1124.8 ± 1 | 3.656 ± 0.22
333.15 K, x1 = 0.159 | 1141.8 ± 1.1 | 5.446 ± 0.33
333.15 K, x1 = 0.195 | 1155 ± 1.1 | 8.051 ± 0.49
333.15 K, x1 = 0.244 | 1168.2 ± 1.2 | 12.77 ± 0.78
333.15 K, x1 = 0.271 | 1174 ± 1.2 | 16.49 ± 1
338.15 K, x1 = 0.03 | 1031.9 ± 1 | 0.828 ± 0.05
338.15 K, x1 = 0.06 | 1071.4 ± 1 | 1.302 ± 0.079
338.15 K, x1 = 0.089 | 1097.9 ± 1 | 2.006 ± 0.12
338.15 K, x1 = 0.124 | 1121 ± 1 | 3.199 ± 0.19
338.15 K, x1 = 0.159 | 1138 ± 1.1 | 4.666 ± 0.28
338.15 K, x1 = 0.195 | 1151.3 ± 1.1 | 6.86 ± 0.42
338.15 K, x1 = 0.244 | 1164.5 ± 1.2 | 10.74 ± 0.65
338.15 K, x1 = 0.271 | 1170.4 ± 1.2 | 13.75 ± 0.84
343.15 K, x1 = 0.03 | 1027.2 ± 1 | 0.761 ± 0.046
343.15 K, x1 = 0.06 | 1067.6 ± 1 | 1.185 ± 0.072
343.15 K, x1 = 0.089 | 1094.1 ± 1 | 1.806 ± 0.11
343.15 K, x1 = 0.124 | 1117.2 ± 1 | 2.715 ± 0.16
343.15 K, x1 = 0.159 | 1134.3 ± 1.1 | 4.069 ± 0.25
343.15 K, x1 = 0.195 | 1147.6 ± 1.1 | 5.932 ± 0.36
343.15 K, x1 = 0.244 | 1160.9 ± 1.2 | 9.231 ± 0.56
343.15 K, x1 = 0.271 | 1166.8 ± 1.2 | 11.68 ± 0.71
348.15 K, x1 = 0.03 | 1023.3 ± 1 | 0.7 ± 0.042
348.15 K, x1 = 0.06 | 1064.1 ± 1 | 1.083 ± 0.065
348.15 K, x1 = 0.089 | 1090.4 ± 1 | 1.629 ± 0.099
348.15 K, x1 = 0.124 | 1113.4 ± 1 | 2.428 ± 0.15
348.15 K, x1 = 0.159 | 1130.5 ± 1.1 | 3.568 ± 0.22
348.15 K, x1 = 0.195 | 1143.8 ± 1.1 | 5.143 ± 0.31
348.15 K, x1 = 0.244 | 1157.2 ± 1.2 | 7.953 ± 0.48
348.15 K, x1 = 0.271 | 1163.2 ± 1.2 | 9.976 ± 0.61
